In US20180221306A1, “PHARMACEUTICAL COMPOSITIONS OF 5-HYDROXY-2-METHYLNAPHTHALENE-1,4-DIONE” (PellFiCure Pharmaceuticals, Inc., priority 2016, published 2018):
Marks after values point to notes of the source that are not given here.

Assays:
rat = conditions: suspension in 0.5% of gum acacia in water or in propylene glycol, oral; cited from earlier work
Sprague Dawley rats [1] = assay: Single-dose maximum tolerated dose (MTD) study; assay type: in vivo, rat; conditions: 200 or 300 mg/kg, once, oral gavage
Description: (§1) A single-dose maximum tolerated dose (MTD) phase A study and a 7-day dose range-finding (DRF) phase B study were conducted in Sprague Dawley rats by MPI Research, Inc. (Mattawan, Mich.). A total of 62 males and 62 females rats were assigned to the study, which was performed in accordance with all current regulations. Animals were housed in standard conditions and had ad libitum access to food and water. Healthy animals of each sex were randomized into treatment groups using a standard, by weight, measured value randomization procedure. Compound I was administered by oral gavage, once at each dose level in Phase A (acute), or once daily for 7 consecutive days in Phase B. Oral gavage was chosen because the oral route is the intended route of administration in humans. Animals were observed twice daily for morbidity and mortality and were euthanatized for humane reasons where appropriate. An initial starting dose of 50 mg/kg was used for Phase A. Subsequent doses were increased or decreased based on the response to the preceding dose. […] The dose levels used in Phase B were based on the MTD identified in Phase A.
(§2) A single-dose maximum tolerated dose (MTD) study and a seven consecutive day dose-range finding study were carried out in Sprague Dawley by orally administering a formulation of Compound I in Carrier A. In the MTD phase, doses of 50, 100, 200 and 300 mg/kg were administered once to Sprague Dawley rats by oral gavage. The single-dose MTD of Compound I in rats was found at 100 mg/kg.

[2] = Single-dose maximum tolerated dose (MTD) study; assay type: in vivo, rat; conditions: both sexes, Sprague Dawley, rat, in vivo; rats, oral gavage, Compound I in Carrier A
Description: as §1, §2

Sprague Dawley rats [3] = assay: 7-day dose range-finding study; assay type: in vivo, rat
Description: as §1
Daily doses of 0 (vehicle), 10, 30 and 100 mg/kg were then administered to Sprague Dawley rats by oral gavage for seven days for the dose-range finding study. […] Adverse events included decreased body weight or decreased body weight gain, decreased food consumption, adverse effects on various pathological parameters and Compound I-related macroscopic and microscopic abnormalities in multiple organs. […] The toxicity profile of Compound I is encouraging considering that the drug is effective in rodents at much lower doses. This toxicity-to-effectiveness dose ratio provides, potentially, a wide therapeutic window.

mice = conditions: over a period of 14 days; cited from earlier work
[4] = Forced degradation: solution stability in aqueous media (HPLC)
PTEN-CaP2/H2B-GFP tumors = assay: IVM chamber model of castration resistant prostate cancer (CRPC), tumor size; assay type: in vivo, mouse
Source text: Mouse prostate cancer cells PTEN-CaP2 were initially derived from the PTEN-P2 cell line and are homozygous for PTEN deletion. Complete ablation of PTEN results in intrinsic androgen-independence in the PTEN-null model. Although PTEN-CaP2 tumors express AR, they are resistant to castration in the absence of prior exposure to ADT.

## CC1=CC(=O)c2c(O)cccc2C1=O [Compound I, 5-hydroxy-2-methylnaphthalene-1,4-dione]
rat
  LD50: 65 mg/kg
Sprague Dawley rats [1]
  Adverse clinical events: decreased activity, abnormal body carriage and piloerection
  Mortality after acute administration: unscheduled deaths in male rats on Days 1 and 2 but not in females
[2]
  MTD: 100 mg/kg
Sprague Dawley rats [3]; 10 mg/kg/day
  Toxicity observed in rats: Very little toxicity
Sprague Dawley rats [3]; 10 mg/kg/day low-dose level
  Compound I-related effects: limited to minimal changes noted in the teeth of one male
Sprague Dawley rats [3]; 30 mg/kg/day, both sexes
  Microscopic findings: Minimal to mild non-adverse microscopic abnormalities in various organs
Sprague Dawley rats [3]; 30 mg/kg/day, oral gavage, seven days
  Clinical chemistry findings: minimal increases in mean serum total bilirubin concentration and alkaline phosphatase activity
Sprague Dawley rats [3]; 100 mg/kg/day, beginning on day 3, early termination of all animals on Day 5
  Morbidity/mortality: Morbidity/mortality occurred both in male and female rats
mice
  LD50: 8 mg/kg
[4]; pH 1, 50% DMSO, 25° C./60% RH, t = 0
  Solution Stability in Aqueous Media, Purity: 99.32 % Area
[4]; pH 1, 50% DMSO, 25° C./60% RH, t = 1 week
  Solution Stability in Aqueous Media, Purity: 98.83 % Area
[4]; pH 1, 50% DMSO, 25° C./60% RH, t = 2 week
  Solution Stability in Aqueous Media, Purity: 98.73 % Area
[4]; pH 1, 50% DMSO, 40° C./75% RH, t = 1 week
  Solution Stability in Aqueous Media, Purity: 98.12 % Area
[4]; pH 1, 50% DMSO, 40° C./75% RH, t = 2 week
  Solution Stability in Aqueous Media, Purity: 95.79 % Area
[4]; pH 2, 50% DMSO, 25° C./60% RH, t = 0
  Solution Stability in Aqueous Media, Purity: 98.83 % Area
[4]; pH 2, 50% DMSO, 25° C./60% RH, t = 1 week
  Solution Stability in Aqueous Media, Purity: 98.48 % Area
[4]; pH 2, 50% DMSO, 25° C./60% RH, t = 2 week
  Solution Stability in Aqueous Media, Purity: 96.90 % Area
[4]; pH 2, 50% DMSO, 40° C./75% RH, t = 1 week, precipitation observed
  Solution Stability in Aqueous Media, Purity: 93.43^‡ % Area
[4]; pH 2, 50% DMSO, 40° C./75% RH, t = 2 week, precipitation observed
  Solution Stability in Aqueous Media, Purity: 85.79^‡ % Area
[4]; pH 3, 50% DMSO, 25° C./60% RH, t = 0
  Solution Stability in Aqueous Media, Purity: 98.85 % Area
[4]; pH 3, 50% DMSO, 25° C./60% RH, t = 1 week
  Solution Stability in Aqueous Media, Purity: 97.09 % Area
[4]; pH 3, 50% DMSO, 25° C./60% RH, t = 2 week
  Solution Stability in Aqueous Media, Purity: 95.26 % Area
[4]; pH 3, 50% DMSO, 40° C./75% RH, t = 1 week
  Solution Stability in Aqueous Media, Purity: 88.81 % Area
[4]; pH 3, 50% DMSO, 40° C./75% RH, t = 2 week
  Solution Stability in Aqueous Media, Purity: 72.78 % Area
[4]; pH 4, 50% DMSO, 25° C./60% RH, t = 0
  Solution Stability in Aqueous Media, Purity: 98.73 % Area
[4]; pH 4, 50% DMSO, 25° C./60% RH, t = 1 week, precipitation observed
  Solution Stability in Aqueous Media, Purity: 96.77^‡ % Area
[4]; pH 4, 50% DMSO, 25° C./60% RH, t = 2 week, precipitation observed
  Solution Stability in Aqueous Media, Purity: 93.81^‡ % Area
[4]; pH 4, 50% DMSO, 40° C./75% RH, t = 1 week, precipitation observed
  Solution Stability in Aqueous Media, Purity: 87.32^‡ % Area
[4]; pH 4, 50% DMSO, 40° C./75% RH, t = 2 week, precipitation observed
  Solution Stability in Aqueous Media, Purity: 73.78^‡ % Area
[4]; pH 5, 50% DMSO, 25° C./60% RH, t = 0
  Solution Stability in Aqueous Media, Purity: 98.46 % Area
[4]; pH 5, 50% DMSO, 25° C./60% RH, t = 1 week, precipitation observed
  Solution Stability in Aqueous Media, Purity: 92.26^‡ % Area
[4]; pH 5, 50% DMSO, 25° C./60% RH, t = 2 week, precipitation observed
  Solution Stability in Aqueous Media, Purity: 83.09^‡ % Area
[4]; pH 5, 50% DMSO, 40° C./75% RH, t = 1 week, precipitation observed
  Solution Stability in Aqueous Media, Purity: 58.98^‡ % Area
[4]; pH 5, 50% DMSO, 40° C./75% RH, t = 2 week, precipitation observed
  Solution Stability in Aqueous Media, Purity: 29.30^‡ % Area
[4]; pH 6, 50% DMSO, 25° C./60% RH, t = 0
  Solution Stability in Aqueous Media, Purity: 97.78 % Area
[4]; pH 6, 50% DMSO, 25° C./60% RH, t = 1 week
  Solution Stability in Aqueous Media, Purity: 69.37 % Area
[4]; pH 6, 50% DMSO, 25° C./60% RH, t = 2 week, precipitation observed
  Solution Stability in Aqueous Media, Purity: 44.92^‡ % Area
[4]; pH 6, 50% DMSO, 40° C./75% RH, t = 1 week
  Solution Stability in Aqueous Media, Purity: <10 % Area
[4]; pH 6, 50% DMSO, 40° C./75% RH, t = 2 week, precipitation observed
  Solution Stability in Aqueous Media, Purity: <10^‡ % Area
[4]; pH 7, 50% DMSO, 25° C./60% RH, t = 0
  Solution Stability in Aqueous Media, Purity: 91.09 % Area
[4]; pH 7, 50% DMSO, 25° C./60% RH, t = 1 week
  Solution Stability in Aqueous Media, Purity: <10 % Area
[4]; pH 7, 50% DMSO, 25° C./60% RH, t = 2 week, precipitation observed
  Solution Stability in Aqueous Media, Purity: <10^‡ % Area
[4]; pH 7, 50% DMSO, 40° C./75% RH, t = 1 week
  Solution Stability in Aqueous Media, Purity: <10 % Area
[4]; pH 7, 50% DMSO, 40° C./75% RH, t = 2 week, precipitation observed
  Solution Stability in Aqueous Media, Purity: <10^‡ % Area
[4]; pH 8, 50% DMSO, 25° C./60% RH, t = 0
  Solution Stability in Aqueous Media, Purity: 81.64 % Area
[4]; pH 8, 50% DMSO, 25° C./60% RH, t = 1 week
  Solution Stability in Aqueous Media, Purity: <10 % Area
[4]; pH 8, 50% DMSO, 25° C./60% RH, t = 2 week, precipitation observed
  Solution Stability in Aqueous Media, Purity: <10^‡ % Area
[4]; pH 8, 50% DMSO, 40° C./75% RH, t = 1 week
  Solution Stability in Aqueous Media, Purity: <10 % Area
[4]; pH 8, 50% DMSO, 40° C./75% RH, t = 2 week, precipitation observed
  Solution Stability in Aqueous Media, Purity: <10^‡ % Area
[4]; pH 9, 50% DMSO, 25° C./60% RH, t = 0
  Solution Stability in Aqueous Media, Purity: 89.84 % Area
[4]; pH 9, 50% DMSO, 25° C./60% RH, t = 1 week
  Solution Stability in Aqueous Media, Purity: 30.06 % Area
[4]; pH 9, 50% DMSO, 25° C./60% RH, t = 2 week, precipitation observed
  Solution Stability in Aqueous Media, Purity: 7.58^‡ % Area
[4]; pH 9, 50% DMSO, 40° C./75% RH, t = 1 week
  Solution Stability in Aqueous Media, Purity: <10 % Area
[4]; pH 9, 50% DMSO, 40° C./75% RH, t = 2 week, precipitation observed
  Solution Stability in Aqueous Media, Purity: <10^‡ % Area
[4]; pH 10, 50% DMSO, 25° C./60% RH, t = 0
  Solution Stability in Aqueous Media, Purity: 88.46 % Area
[4]; pH 10, 50% DMSO, 25° C./60% RH, t = 1 week
  Solution Stability in Aqueous Media, Purity: 37.43 % Area
[4]; pH 10, 50% DMSO, 25° C./60% RH, t = 2 week, precipitation observed
  Solution Stability in Aqueous Media, Purity: <10^‡ % Area
[4]; pH 10, 50% DMSO, 40° C./75% RH, t = 1 week, precipitation observed
  Solution Stability in Aqueous Media, Purity: <10^‡ % Area
[4]; pH 10, 50% DMSO, 40° C./75% RH, t = 2 week, precipitation observed
  Solution Stability in Aqueous Media, Purity: <10^‡ % Area
[4]; water, 25° C./60% RH, t = 0
  Solution Stability in Aqueous Media, Purity: 96.33 % Area
[4]; water, 25° C./60% RH, t = 1 week, precipitation observed
  Solution Stability in Aqueous Media, Purity: 66.97^‡ % Area
[4]; water, 25° C./60% RH, t = 2 week, precipitation observed
  Solution Stability in Aqueous Media, Purity: 53.76^‡ % Area
[4]; water, 40° C./75% RH, t = 1 week, precipitation observed
  Solution Stability in Aqueous Media, Purity: 45.09^‡ % Area
[4]; water, 40° C./75% RH, t = 2 week, precipitation observed
  Solution Stability in Aqueous Media, Purity: 44.20^‡ % Area
5 mg/g
  Stability of formulations of Compound I in PEG: 50%
3 day, 4.6 mg/mL
  Stability of the formulation in Carrier A (sesame oil), Potency as Amount: 4200 µg/mL
PTEN-CaP2/H2B-GFP tumors; combination of Compound I and castration
  Tumor size relative to initial size: 157%
PTEN-CaP2/H2B-GFP tumors; oral formulation of Compound I alone (680% castrated, 656% untreated)
  Tumor size relative to initial size: 293%
PTEN-CaP2/H2B-GFP tumors; p=0.048
  Effectiveness of combination with castration vs Compound I alone: twice as effective
